Tests used:
[1] = system: colon microbiota of human origin; assay: TIM-2 in vitro model of the proximal colon: short-chain fatty acids (SCFA) production; type: cell-based; details: for Cumulative production of butyrate / Cumulative production of total short chain fatty acids (SCFA): mean of n = 2
Description: (§1) Crystalline lactulose was administered daily for 5 days to the TNO Intestinal Model (TIM-2), an in vitro model of the proximal colon. NaOH consumption, short-chain fatty acids (SCFA) production, ammonia production as well as relative abundance of microbiota were analyzed.
(§2) The substance administered in this study was lactulose crystals (S.C.M. Società Chimica Mugello S.r.l., Vicchio, Italy). Experiments without the addition of lactulose served as negative control.
(§3) The TNO Intestinal Model (TIM-2) is a dynamic in vitro model of the proximal colon. The TIM-2 system was inoculated with a highly metabolically active colon microbiota of human origin. In the system the following standardized conditions were simulated: body temperature; pH in the lumen of the proximal colon (pH 5.8); delivery of a substrate from the 'ileum' (SIEM; Standardized Ileum Efflux Medium); mixing and transport of the intestinal contents; anaerobiosis; absorption of water and absorption of fermentation products, metabolites and other low molecular weight compounds (via a semipermeable membrane inside the colon model).
(§4) SIEM simulates material passing the ileocecal valve in humans. It contained the major non-digestible carbohydrates (pectin, xylan, arabinogalactan, amylopectin, starch) found in a normal western diet as well as protein (bactopepton, casein), ox-bile, Tween 80 as well as vitamins and minerals. SIEM was added to the system at a speed of 2.5 mL/h and the speed of the dialysis liquid was 1.5 mL/min. During the experiment, the intestinal contents were mixed continuously by the peristaltic movements of the TIM-2 system. In order to simulate the transit of the chime from proximal to distal colon, 25 mL of the lumen was removed every 24 h and discarded.
(§5) Before performing each experiment, the system was inoculated with a standardized microbiota of human origin. This standardized microbiota was prepared using fecal donations from a group of 4 healthy volunteers (3 females, 1 male, age 38.8 ± 3.9 years; BMI (body mass index) 24.2 ± 1.5 kg/m^2). Individuals provided signed informed consent before participation, were non-smokers and had not used antibiotics, prebiotics, probiotics or laxatives within 1 month before the stool donation.
(§6) At the start of the adaptation period the microbiota was allowed to adapt to the model conditions and SIEM for 16 h. After the adaptation period the 120 h test period started in which lactulose was added to TIM-2 once daily.
(§7) Lactulose was added to the system at daily doses of 2 g, 3 g, 4 g, and 5 g lactulose. Each dose as well as the control experiment was studied in duplicate (n = 2). The test period of the TIM-2 experiments lasted 120 h (5 consecutive days).
(§8) Metabolites like the short-chain fatty acids (SCFA) and ammonia produced in TIM-2 were continuously removed from the lumen by a semipermeable membrane unit. This dialysate was collected at the start of the test period and after 24, 48, 72, 96, and 120 h.
The lumen and dialysate fractions of TIM-2 were analyzed using gas chromatography for SCFA (acetate, propionate and butyrate). Dialysate samples were directly used. Lumen samples were centrifuged (12,000 rpm at 4 °C for 10 min).

[2] = system: colon microbiota of human origin; assay: TIM-2 in vitro model of the proximal colon: ammonia production; type: cell-based; details: for ammonia production (in words): daily doses of 2 g, 3 g, 4 g, 5 g, 120 h test period, versus control; for Cumulative ammonia production: mean of n = 2
Description: as §1, §2, §3, §4, §5, §6, §7, §8
Samples for ammonia analysis were centrifuged as described above. Ammonia was determined based on the Berthelot reaction.

Lactobacillus = assay: TIM-2 microbiota composition by V4 16S rDNA amplicon sequencing; type: cell-based, human; details: for Average number of the bacterial genus Lactobacillus: after 120 h of exposure in TIM-2, control 82
Description: as §1, §2, §3, §4, §5, §6, §7
(§9) At the beginning and end of the experiment (t = 0 h and t = 120 h) luminal samples were used to investigate the composition of the microbiota. The samples were snap frozen in liquid nitrogen and stored at ≤ -72 °C until analysis.
(§10) The bacterial population in the TIM-2 samples was analyzed using Next Generation sequencing. Total DNA from the collected TIM-2 lumen samples at the start (t = 0 h) and at the end (t = 120 h) of the experiments was isolated. To determine the recovery of bacterial DNA from the samples, a quantitative polymerase chain reaction (qPCR) using primers specific for the bacterial 16S rRNA gene was used. Changes in the microbiota composition were analyzed by using mass V4 16S rDNA amplicon sequencing. Processing of the sequencing data was done using the Mothur pipeline.

Bifidobacterium = assay: as above; type: cell-based, human; details: for Average number of the bacterial genus Bifidobacterium: after 120 h of exposure in TIM-2, control 28,345
Description: as §1, §2, §3, §4, §5, §6, §7, §9, §10

[3] = daily doses of 2 g, 3 g, 4 g, 5 g, 120 h test period, versus control
[4] = lactulose 2 g daily, 0 h (values at the start set to zero), control 0
[5] = lactulose 3 g daily, 0 h (values at the start set to zero), control 0
[6] = lactulose 4 g daily, 0 h (values at the start set to zero), control 0
[7] = lactulose 5 g daily, 0 h (values at the start set to zero), control 0
[8] = after 120 h in TIM-2, versus control

In the case of `OC[C@H]1O[C@@H](O[C@@H]2[C@@H](CO)OC(O)(CO)[C@H]2O)[C@H](O)[C@@H](O)[C@H]1O` (mixture of isomers) [Lactulose, lactulose], the “SCFA production (in words)” value [1, 3] is reported as “increased the levels”, the “levels of butyrate (in words)” value [1, 3] is reported as “increased the levels” and the “SCFA production (in words)” value ([1]; daily doses of 2 g, 3 g, 4 g, 5 g, 120 h test period, versus control, listed as lactulose) is reported as “higher SCFA production as compared to the control”. For the same molecule, the “Cumulative production of butyrate” value [1, 4] was 0 mmol, the “Cumulative production of total short chain fatty acids (SCFA)” value (shortened to “Cumulative production … (SCFA)”) [1, 4] was 0 mmol and the “Cumulative production of butyrate” value ([1]; lactulose 2 g daily, 24 h, control 7) was 14 mmol. For the same molecule, the “Cumulative production … (SCFA)” value ([1]; lactulose 2 g daily, 24 h, control 62) was 85 mmol, the “Cumulative production of butyrate” value ([1]; lactulose 2 g daily, 48 h, control 18) was 27 mmol and the “Cumulative production … (SCFA)” value ([1]; lactulose 2 g daily, 48 h, control 129) was 163 mmol. The “Cumulative production of butyrate” value ([1]; lactulose 2 g daily, 72 h, control 31) was 39 mmol, the “Cumulative production … (SCFA)” value ([1]; lactulose 2 g daily, 72 h, control 194) was 234 mmol and the “Cumulative production of butyrate” value ([1]; lactulose 2 g daily, 96 h, control 44) was 52 mmol. The “Cumulative production … (SCFA)” value ([1]; lactulose 2 g daily, 96 h, control 257) was 318 mmol, the “Cumulative production of butyrate” value ([1]; lactulose 2 g daily, 120 h, control 58) was 69 mmol and the “Cumulative production … (SCFA)” value ([1]; lactulose 2 g daily, 120 h, control 320) was 403 mmol. For the same molecule, the “Cumulative production of butyrate” value [1, 5] was 0 mmol, the “Cumulative production … (SCFA)” value [1, 5] was 0 mmol and the “Cumulative production of butyrate” value ([1]; lactulose 3 g daily, 24 h, control 7) was 12 mmol. For the same molecule, the “Cumulative production … (SCFA)” value ([1]; lactulose 3 g daily, 24 h, control 62) was 85 mmol, the “Cumulative production of butyrate” value ([1]; lactulose 3 g daily, 48 h, control 18) was 27 mmol and the “Cumulative production … (SCFA)” value ([1]; lactulose 3 g daily, 48 h, control 129) was 175 mmol. The “Cumulative production of butyrate” value ([1]; lactulose 3 g daily, 72 h, control 31) was 40 mmol, the “Cumulative production … (SCFA)” value ([1]; lactulose 3 g daily, 72 h, control 194) was 256 mmol and the “Cumulative production of butyrate” value ([1]; lactulose 3 g daily, 96 h, control 44) was 54 mmol. The “Cumulative production … (SCFA)” value ([1]; lactulose 3 g daily, 96 h, control 257) was 340 mmol, the “Cumulative production of butyrate” value ([1]; lactulose 3 g daily, 120 h, control 58) was 68 mmol and the “Cumulative production … (SCFA)” value ([1]; lactulose 3 g daily, 120 h, control 320) was 427 mmol. For the same molecule, the “Cumulative production of butyrate” value [1, 6] was 0 mmol, the “Cumulative production … (SCFA)” value [1, 6] was 0 mmol and the “Cumulative production of butyrate” value ([1]; lactulose 4 g daily, 24 h, control 7) was 12 mmol. For the same molecule, the “Cumulative production … (SCFA)” value ([1]; lactulose 4 g daily, 24 h, control 62) was 97 mmol, the “Cumulative production of butyrate” value ([1]; lactulose 4 g daily, 48 h, control 18) was 30 mmol and the “Cumulative production … (SCFA)” value ([1]; lactulose 4 g daily, 48 h, control 129) was 216 mmol. The “Cumulative production of butyrate” value ([1]; lactulose 4 g daily, 72 h, control 31) was 47 mmol, the “Cumulative production … (SCFA)” value ([1]; lactulose 4 g daily, 72 h, control 194) was 310 mmol and the “Cumulative production of butyrate” value ([1]; lactulose 4 g daily, 96 h, control 44) was 70 mmol. For the same molecule, the “Cumulative production … (SCFA)” value ([1]; lactulose 4 g daily, 96 h, control 257) was 405 mmol, the “Cumulative production of butyrate” value ([1]; lactulose 4 g daily, 120 h, control 58) was 93 mmol and the “Cumulative production … (SCFA)” value ([1]; lactulose 4 g daily, 120 h, control 320) was 500 mmol. The “Cumulative production of butyrate” value [1, 7] was 0 mmol, the “Cumulative production … (SCFA)” value [1, 7] was 0 mmol and the “Cumulative production of butyrate” value ([1]; lactulose 5 g daily, 24 h, control 7) was 8 mmol. For the same molecule, the “Cumulative production … (SCFA)” value ([1]; lactulose 5 g daily, 24 h, control 62) was 84 mmol, the “Cumulative production of butyrate” value ([1]; lactulose 5 g daily, 48 h, control 18) was 29 mmol and the “Cumulative production … (SCFA)” value ([1]; lactulose 5 g daily, 48 h, control 129) was 214 mmol. For the same molecule, the “Cumulative production of butyrate” value ([1]; lactulose 5 g daily, 72 h, control 31) was 53 mmol, the “Cumulative production … (SCFA)” value ([1]; lactulose 5 g daily, 72 h, control 194) was 309 mmol and the “Cumulative production of butyrate” value ([1]; lactulose 5 g daily, 96 h, control 44) was 84 mmol. The “Cumulative production … (SCFA)” value ([1]; lactulose 5 g daily, 96 h, control 257) was 430 mmol, the “Cumulative production of butyrate” value ([1]; lactulose 5 g daily, 120 h, control 58) was 118 mmol and the “Cumulative production … (SCFA)” value ([1]; lactulose 5 g daily, 120 h, control 320) was 520 mmol. The “ammonia production (in words)” value [2] was “decreased the levels”, the “ammonia production (in words)” value ([2]; listed as lactulose) was “decreased mean ammonia production” and the Cumulative ammonia production ([2]; lactulose 2 g daily, 0 h, control 0) was 0 mmol. For the same molecule, the Cumulative ammonia production ([2]; lactulose 2 g daily, 24 h, control 10) was 9 mmol, the Cumulative ammonia production ([2]; lactulose 2 g daily, 48 h, control 31) was 29 mmol and the Cumulative ammonia production ([2]; lactulose 2 g daily, 72 h, control 55) was 48 mmol. It also gave a Cumulative ammonia production ([2]; lactulose 2 g daily, 96 h, control 82) of 68 mmol, a Cumulative ammonia production ([2]; lactulose 2 g daily, 120 h, control 108) of 88 mmol and a Cumulative ammonia production ([2]; lactulose 3 g daily, 0 h, control 0) of 0 mmol. It also gave a Cumulative ammonia production ([2]; lactulose 3 g daily, 24 h, control 10) of 9 mmol, a Cumulative ammonia production ([2]; lactulose 3 g daily, 48 h, control 31) of 26 mmol and a Cumulative ammonia production ([2]; lactulose 3 g daily, 72 h, control 55) of 45 mmol. It also gave a Cumulative ammonia production ([2]; lactulose 3 g daily, 96 h, control 82) of 64 mmol, a Cumulative ammonia production ([2]; lactulose 3 g daily, 120 h, control 108) of 85 mmol and a Cumulative ammonia production ([2]; lactulose 4 g daily, 0 h, control 0) of 0 mmol. It also gave a Cumulative ammonia production ([2]; lactulose 4 g daily, 24 h, control 10) of 6 mmol, a Cumulative ammonia production ([2]; lactulose 4 g daily, 48 h, control 31) of 15 mmol and a Cumulative ammonia production ([2]; lactulose 4 g daily, 72 h, control 55) of 25 mmol. For the same molecule, the Cumulative ammonia production ([2]; lactulose 4 g daily, 96 h, control 82) was 38 mmol, the Cumulative ammonia production ([2]; lactulose 4 g daily, 120 h, control 108) was 51 mmol and the Cumulative ammonia production ([2]; lactulose 5 g daily, 0 h, control 0) was 0 mmol. It also gave a Cumulative ammonia production ([2]; lactulose 5 g daily, 24 h, control 10) of 5 mmol, a Cumulative ammonia production ([2]; lactulose 5 g daily, 48 h, control 31) of 12 mmol and a Cumulative ammonia production ([2]; lactulose 5 g daily, 72 h, control 55) of 22 mmol. The Cumulative ammonia production ([2]; lactulose 5 g daily, 96 h, control 82) was 32 mmol, the Cumulative ammonia production ([2]; lactulose 5 g daily, 120 h, control 108) was 41 mmol and the “abundance of Lactobacillus (in words)” value (Lactobacillus; [8]) was “increased the abundance”. The “Average number of the bacterial genus Lactobacillus” value (Lactobacillus; lactulose 2 g daily) was 1,623, the “Average number of the bacterial genus Lactobacillus” value (Lactobacillus; lactulose 3 g daily) was 1,504 and the “Average number of the bacterial genus Lactobacillus” value (Lactobacillus; lactulose 4 g daily) was 12,047. The “Average number of the bacterial genus Lactobacillus” value (Lactobacillus; lactulose 5 g daily) was 912, the “abundance of Bifidobacterium (in words)” value (Bifidobacterium; [8]) was “increased the abundance” and the “Average number of the bacterial genus Bifidobacterium” value (Bifidobacterium; lactulose 2 g daily) was 24,781. For the same molecule, the “Average number of the bacterial genus Bifidobacterium” value (Bifidobacterium; lactulose 3 g daily) was 17,424, the “Average number of the bacterial genus Bifidobacterium” value (Bifidobacterium; lactulose 4 g daily) was 135,876 and the “Average number of the bacterial genus Bifidobacterium” value (Bifidobacterium; lactulose 5 g daily) was 116,792.

Reference: patent EP3634580B1, “COMPOSITIONS COMPRISING LACTULOSE FOR MAINTAINING OR IMPROVING GUT HEALTH IN HUMANS” (Fresenius Kabi Austria GmbH, priority 2017, dated 2018)
